These results are taken from patent US20260374782A1, “NEW COMPOUNDS, PROCESSES FOR PREPARING THE SAME AND THEIR USE AS DRUGS” (B&A ONCOMEDICAL, priority 2022, published 2026).

What is called inhibition is the change of the read-out against control, counted positive when it falls.

The experiment has as its target T1, NKCC1 (Homo sapiens, UniProt P55011).
T1 construct: endogenous in cells; host or cells: native HEK293 cells
T1 sequence (P55011 1-1212): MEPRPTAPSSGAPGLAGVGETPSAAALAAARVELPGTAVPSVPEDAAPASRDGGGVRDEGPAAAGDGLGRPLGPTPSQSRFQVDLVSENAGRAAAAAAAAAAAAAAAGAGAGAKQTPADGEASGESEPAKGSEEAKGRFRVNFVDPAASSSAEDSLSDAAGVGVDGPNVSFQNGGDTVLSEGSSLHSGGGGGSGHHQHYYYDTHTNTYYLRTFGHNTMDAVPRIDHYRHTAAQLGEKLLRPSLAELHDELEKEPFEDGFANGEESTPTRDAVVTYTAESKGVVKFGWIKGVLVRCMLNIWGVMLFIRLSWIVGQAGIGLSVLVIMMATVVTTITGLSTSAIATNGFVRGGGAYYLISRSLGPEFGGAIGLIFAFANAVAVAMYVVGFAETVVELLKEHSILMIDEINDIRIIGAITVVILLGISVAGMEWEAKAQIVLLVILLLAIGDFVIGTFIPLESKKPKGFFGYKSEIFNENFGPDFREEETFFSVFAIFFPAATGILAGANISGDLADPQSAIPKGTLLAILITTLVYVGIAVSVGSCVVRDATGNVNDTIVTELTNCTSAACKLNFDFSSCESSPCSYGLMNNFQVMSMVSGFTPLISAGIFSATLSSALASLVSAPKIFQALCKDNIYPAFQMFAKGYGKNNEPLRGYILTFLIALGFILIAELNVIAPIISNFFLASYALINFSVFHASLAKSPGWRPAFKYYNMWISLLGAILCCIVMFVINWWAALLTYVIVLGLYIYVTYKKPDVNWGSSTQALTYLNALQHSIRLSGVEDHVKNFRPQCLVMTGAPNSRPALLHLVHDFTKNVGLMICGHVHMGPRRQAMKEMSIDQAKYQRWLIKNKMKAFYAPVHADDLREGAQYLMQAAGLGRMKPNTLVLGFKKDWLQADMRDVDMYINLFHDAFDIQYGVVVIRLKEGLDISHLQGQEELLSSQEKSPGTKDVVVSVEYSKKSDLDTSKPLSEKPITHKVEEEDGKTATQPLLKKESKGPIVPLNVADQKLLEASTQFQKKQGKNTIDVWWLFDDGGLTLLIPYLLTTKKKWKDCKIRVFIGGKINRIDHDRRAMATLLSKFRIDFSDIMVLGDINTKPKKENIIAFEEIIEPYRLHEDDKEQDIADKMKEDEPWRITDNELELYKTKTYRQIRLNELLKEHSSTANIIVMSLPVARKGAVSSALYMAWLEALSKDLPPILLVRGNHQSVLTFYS
Put plainly: NKCC1-mediated K+ influx (83Rb tracer uptake) in native HEK293 cells, hypertonic saline, 100 μM ouabain. Type of experiment: cell-based. Particulars: HEK293, no drug = 1000, 20 μM bumetanide = 0; for inhibition at 2 µM: read-out: NKCC1 mediated flux inhibition at 2 μM (%); for inhibition at 20 µM: read-out: NKCC1 mediated flux inhibition at 20 μM (%). A digest of the protocol: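 Native cells in slightly hypertonic saline with 100 μM ouabain; 15 min preincubation then 15 min 83Rb uptake (0.25 μCi/mL), scintillation counting normalized to protein. Compounds at 2 μM and 20 μM; flux scaled 1000 (no drug) to 0 (20 μM bumetanide), triplicate dishes.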

For the molecule `CCCCNc1cc(C(=O)O)cc(S(=N)(=O)Nc2ccnnc2)c1Oc1ccccc1` (stereo not drawn) [Compound 93, 3-(butylamino)-4-phenoxy-5-[(pyridazin-4-ylamino)sulfonimidoyl]benzoic acid], the inhibition at 2 µM is 30 to 50% and the inhibition at 20 µM is at least 75%.

Consider `CCCCNc1cc(C(=O)O)cc(S(=N)(=O)NCCCC)c1Oc1ccccc1` (stereo not drawn) [Compound 94, 3-(butylamino)-5-(butylaminosulfonimidoyl)-4-phenoxy-benzoic acid], for which the inhibition at 2 µM fell in the range of 50 to 75% and the inhibition at 20 µM was at least 75%.

With `CCCCNc1cc(C(=O)O)cc(S(=N)(=O)NC23CC(C2)C3)c1Oc1ccccc1` (stereo not drawn) [Compound 95, 3-[(1-bicyclo[1.1.1]pentanylamino)sulfonimidoyl]-5-(butylamino)-4-phenoxy-benzoic acid], the inhibition at 2 µM lay in the range of 30 to 50% and the inhibition at 20 µM was 30 to 50%.

Take `CCCCNc1cc(C(=O)O)cc(S(=N)(=O)NC2CN3CCC2CC3)c1Oc1ccccc1` (stereo not drawn) [Compound 96, 3-(butylamino)-4-phenoxy-5-[(quinuclidin-3-ylamino)sulfonimidoyl]benzoic acid]: the inhibition at 2 µM lay within 30 to 50% and the inhibition at 20 µM lay in the range of 30 to 50%.

For `CCCCNc1cc(C(=O)O)cc(S(=N)(=O)NCC2CCN(C(C)=O)CC2)c1Oc1ccccc1` (stereo not drawn) [Compound 97, 3-[[(1-acetyl-4-piperidyl)methylamino]sulfonimidoyl]-5-(butylamino)-4-phenoxy-benzoic acid], the inhibition at 2 µM was 30 to 50% and the inhibition at 20 µM was at least 75%.

As for `CCCCNc1cc(C(=O)OC)cc(S(=O)(=Nc2ccccc2)N2CCCCCC2)c1Oc1ccccc1` (stereo not drawn) [Compound 99, methyl 3-[S-(azepan-1-yl)-N-phenyl-sulfonimidoyl]-5-(butylamino)-4-phenoxy-benzoate], the inhibition at 2 µM lay within 30 to 50% and the inhibition at 20 µM was 10 to 30%.

In the case of `CCCCNc1cc(C(=O)O)cc(S(=O)(=NC)N(C)CC)c1Oc1ccccc1` (stereo not drawn) [Compound 100, 3-(butylamino)-5-[S-[ethyl(methyl)amino]-N-methyl-sulfonimidoyl]-4-phenoxybenzoic acid], the inhibition at 20 µM lay within 30 to 50%.

In the case of `CCCCNc1cc(C(=O)O)cc(S(=O)(=Nc2ccccc2)N2CCCCCC2)c1Oc1ccccc1` (stereo not drawn) [Compound 101, 3-[S-(azepan-1-yl)-N-phenyl-sulfonimidoyl]-5-(butylamino)-4-phenoxy-benzoic acid], the inhibition at 2 µM was 10 to 30% and the inhibition at 20 µM was 10 to 30%.

In the case of `CCCCNc1cc(C(=O)NC)cc(S(=N)(=O)NCc2ccccc2)c1Oc1ccccc1` (stereo not drawn) [Compound 102, 3-[(benzylamino)sulfonimidoyl]-5-(butylamino)-N-methyl-4-phenoxy-benzamide], the inhibition at 20 µM lay within 10 to 30%.

Consider `CCCCNc1cc(C(=O)NC)cc(S(=N)(=O)NCC2CCOCC2)c1Oc1ccccc1` (stereo not drawn) [Compound 103, 3-(butylamino)-N-methyl-4-phenoxy-5-[(tetrahydropyran-4-ylmethylamino)sulfonimidoyl]benzamide], for which the inhibition at 2 µM is 30 to 50% and the inhibition at 20 µM lay within 50 to 75%.

Take `CCCCNc1cc(C(=O)NC)cc(S(=N)(=O)Nc2ccccc2)c1Oc1ccccc1` (stereo not drawn) [Compound 104, 3-(anilinosulfonimidoyl)-5-(butylamino)-N-methyl-4-phenoxy-]: the inhibition at 2 µM was in the range of 30 to 50%.

With `CCCCNc1cc(C(=O)N(C)C)cc(S(=N)(=O)Nc2ccccc2)c1Oc1ccccc1` (stereo not drawn) [Compound 105, 3-(anilinosulfonimidoyl)-5-(butylamino)-N,N-dimethyl-4-phenoxy-benzamide], the inhibition at 2 µM was in the range of 30 to 50% and the inhibition at 20 µM was in the range of 10 to 30%.

In the case of `CCCCNc1cc(C(=O)NC2CC2)cc(S(=N)(=O)Nc2ccccc2)c1Oc1ccccc1` (stereo not drawn) [Compound 106, 3-(anilinosulfonimidoyl)-5-(butylamino)-N-cyclopropyl-4-phenoxy-benzamide], the inhibition at 2 µM was in the range of 30 to 50%.

On to `CCCCNc1cc(C(=O)NCC2CC2)cc(S(=N)(=O)Nc2ccccc2)c1Oc1ccccc1` (stereo not drawn) [Compound 107, 3-(anilinosulfonimidoyl)-5-(butylamino)-N-(cyclopropylmethyl)-4-phenoxy-benzamide], for which the inhibition at 20 µM fell in the range of 10 to 30%.

Consider `CCCCNc1cc(C(=O)NOC)cc(S(=N)(=O)Nc2ccccc2)c1Oc1ccccc1` (stereo not drawn) [Compound 108, 3-(anilinosulfonimidoyl)-5-(butylamino)-N-methoxy-4-phenoxy-benzamide], for which the inhibition at 2 µM was 30 to 50% and the inhibition at 20 µM was 30 to 50%.

For the molecule `CCCCNc1cc(C(=O)NCCOC)cc(S(=N)(=O)Nc2ccccc2)c1Oc1ccccc1` (stereo not drawn) [Compound 109, 3-(anilinosulfonimidoyl)-5-(butylamino)-N-(2-methoxyethyl)-4-phenoxy-benzamide], the inhibition at 20 µM was in the range of 10 to 30%.

As for `CCCCNc1cc(C(=O)NCC(F)F)cc(S(=N)(=O)Nc2ccccc2)c1Oc1ccccc1` (stereo not drawn) [Compound 110, 3-(anilinosulfonimidoyl)-5-(butylamino)-N-(2,2-difluoroethyl)-4-phenoxy-benzamide], the inhibition at 20 µM was in the range of 10 to 30%.

For `CCCCNc1cc(C(=O)NCC(F)(F)F)cc(S(=N)(=O)Nc2ccccc2)c1Oc1ccccc1` (stereo not drawn) [Compound 111, 3-(anilinosulfonimidoyl)-5-(butylamino)-N-(2,2,2-trifluoroethyl)-4-phenoxy-benzamide], the inhibition at 20 µM is 10 to 30%.

With `CCCCNc1cc(C(=O)NC)cc(S(=N)(=O)N2Cc3ccccc3C2)c1Oc1ccccc1` (stereo not drawn) [Compound 112, 3-(butylamino)-5-(isoindolin-2-ylsulfonimidoyl)-N-methyl-4-phenoxy-benzamide], the inhibition at 2 µM lay in the range of 10 to 30%.

In the case of `CCCCNc1cc(C(=O)NOC)cc(S(=N)(=O)N2Cc3ccccc3C2)c1Oc1ccccc1` (stereo not drawn) [Compound 113, 3-(butylamino)-5-(isoindolin-2-ylsulfonimidoyl)-N-methoxy-4-phenoxy-benzamide], the inhibition at 2 µM was in the range of 30 to 50% and the inhibition at 20 µM lay in the range of 10 to 30%.

For `CCCCNc1cc(C(=O)NCCOC)cc(S(=N)(=O)N2Cc3ccccc3C2)c1Oc1ccccc1` (stereo not drawn) [Compound 114, 3-(butylamino)-5-(isoindolin-2-ylsulfonimidoyl)-N-(2-methoxyethyl)-4-phenoxy-benzamide], the inhibition at 2 µM fell in the range of 30 to 50% and the inhibition at 20 µM lay within 10 to 30%.

`CCCCNc1cc(C(=O)NCC(F)(F)F)cc(S(=N)(=O)N2Cc3ccccc3C2)c1Oc1ccccc1` (stereo not drawn) [Compound 115, 3-(butylamino)-5-(isoindolin-2-ylsulfonimidoyl)-4-phenoxy-N-(2,2,2-trifluoroethyl)benzamide]: the inhibition at 2 µM was 50 to 75% and the inhibition at 20 µM was in the range of 10 to 30%.

Regarding `CCCCNc1cc(C(=O)NC)cc(S(=N)(=O)NCc2cccc(Cl)c2)c1Oc1ccccc1` (stereo not drawn) [Compound 116, 3-(butylamino)-5-[[(3-chlorophenyl)methylamino]sulfonimidoyl]-N-methyl-4-phenoxy-benzamide], the inhibition at 2 µM fell in the range of 30 to 50%.

For `CCCCNc1cc(C(=O)NOC)cc(S(=N)(=O)NCc2cccc(Cl)c2)c1Oc1ccccc1` (stereo not drawn) [Compound 117, 3-(butylamino)-5-[[(3-chlorophenyl)methylamino]sulfonimidoyl]-N-methoxy-4-phenoxy-benzamide], the inhibition at 2 µM is 30 to 50% and the inhibition at 20 µM was 10 to 30%.

In the case of `CCCCNc1cc(C(=O)NCCOC)cc(S(=N)(=O)NCc2cccc(Cl)c2)c1Oc1ccccc1` (stereo not drawn) [Compound 118, 3-(butylamino)-5-[[(3-chlorophenyl)methylamino]sulfonimidoyl]-N-(2-methoxyethyl)-4-phenoxy-benzamide], the inhibition at 2 µM was 10 to 30% and the inhibition at 20 µM is 10 to 30%.

Consider `CCCCNc1cc(C(=O)NCC(F)(F)F)cc(S(=N)(=O)NCc2cccc(Cl)c2)c1Oc1ccccc1` (stereo not drawn) [Compound 119, 3-(butylamino)-5-[[(3-chlorophenyl)methylamino]sulfonimidoyl]-4-phenoxy-N-(2,2,2-trifluoroethyl)benzamide], for which the inhibition at 2 µM lay in the range of 10 to 30% and the inhibition at 20 µM is 10 to 30%.
